{
  "source": "the NIST ThermoML archive (doi:10.1021/je300852v)",
  "assay": "mean ionic activity coefficient (dimensionless); mn = molality of the nth substance listed, in mol/kg",
  "conditions": "298.15 K, 101 kPa, Liquid, 2 term dubye huckel",
  "note": "± gives the expanded uncertainty stated by the source.",
  "data": [
    {"smiles": "[Ca+2].[Cl-].[Cl-]", "note": "[calcium chloride] + O", "values": [
      {"measurement": "mean ionic activity coefficient", "setting": "m1 = 0.01", "result": "0.728 ± 0.001"},
      {"measurement": "mean ionic activity coefficient", "setting": "m1 = 0.02", "result": "0.664 ± 0.001"},
      {"measurement": "mean ionic activity coefficient", "setting": "m1 = 0.05", "result": "0.576 ± 0.001"},
      {"measurement": "mean ionic activity coefficient", "setting": "m1 = 0.1", "result": "0.517 ± 0.001"},
      {"measurement": "mean ionic activity coefficient", "setting": "m1 = 0.2", "result": "0.47 ± 0.001"},
      {"measurement": "mean ionic activity coefficient", "setting": "m1 = 0.3", "result": "0.453 ± 0.001"},
      {"measurement": "mean ionic activity coefficient", "setting": "m1 = 0.4", "result": "0.448 ± 0.001"},
      {"measurement": "mean ionic activity coefficient", "setting": "m1 = 0.5", "result": "0.449 ± 0.001"},
      {"measurement": "mean ionic activity coefficient", "setting": "m1 = 0.6", "result": "0.454 ± 0.001"},
      {"measurement": "mean ionic activity coefficient", "setting": "m1 = 0.7", "result": "0.462 ± 0.001"},
      {"measurement": "mean ionic activity coefficient", "setting": "m1 = 0.8", "result": "0.473 ± 0.001"},
      {"measurement": "mean ionic activity coefficient", "setting": "m1 = 0.9", "result": "0.487 ± 0.001"},
      {"measurement": "mean ionic activity coefficient", "setting": "m1 = 1", "result": "0.502 ± 0.001"},
      {"measurement": "mean ionic activity coefficient", "setting": "m1 = 1.2", "result": "0.54 ± 0.001"},
      {"measurement": "mean ionic activity coefficient", "setting": "m1 = 1.4", "result": "0.586 ± 0.001"},
      {"measurement": "mean ionic activity coefficient", "setting": "m1 = 1.6", "result": "0.643 ± 0.001"},
      {"measurement": "mean ionic activity coefficient", "setting": "m1 = 1.8", "result": "0.71 ± 0.001"},
      {"measurement": "mean ionic activity coefficient", "setting": "m1 = 2", "result": "0.79 ± 0.001"},
      {"measurement": "mean ionic activity coefficient", "setting": "m1 = 2.5", "result": "1.064 ± 0.001"},
      {"measurement": "mean ionic activity coefficient", "setting": "m1 = 3", "result": "1.49 ± 0.001"}
    ]}
  ]
}
